Results on one molecule are retold here after patent US20250375454A1, “METHODS FOR TREATING HEPATOCELLULAR CARCINOMA” (THE HONG KONG POLYTECHNIC UNIVERSITY, priority 2024, published 2025).

Common to all, as to type: cell-based
For one series, the system named is PLC/PRF/5 cells. In words: MTT cytotoxicity assay, PLC/PRF/5. Here is the method:
(§1) Huh7 and PLC/PRF/5 (CRL-8024™) cells were purchased from Thermo Fisher Scientific and the ATCC, respectively. MIHA was kindly provided by Dr. J. R. Chowdhury, Albert Einstein College of Medicine, New York. The cell lines were cultured in Dulbecco's modified Eagle medium (DMEM, Gibco, MA, USA) supplemented with 10% fetal bovine serum (FBS, BI, MA, USA) and 1× penicillin-streptomycin solution (Solarbio) at 37° C. in a humid, 5% CO2 atmosphere.
(§2) Huh7 and PLC/PRF/5 cells at a density of 5×10^3 cells/well were cultured in 96-well plates and incubated at 37° C. in 5% CO2. Both cell lines were treated with different concentrations of benzoxazinone derivatives (ZAK-I-57, ZAK-I-64, and ZAK-I-68). Both cell lines were incubated with ZAK-I-57 for 24 h and for 48 h with ZAK-I-64 and ZAK-I-68. MTT (3-[4,5-dimethylthiazol-2-yl]-2,5-diphenyltetrazolium bromide) solution was then added to each well and incubated for 3 h in a CO2 atmosphere at 37° C. Insoluble formazan crystals were dissolved by adding 100 μL of dimethyl sulfoxide (DMSO) to each well, followed by orbital agitation for 10 min. A minimum of three biological replicates were analyzed using a plate reader to determine IC50. The same experiment was performed with MIHA hepatocyte cells to evaluate the selectivity cytotoxicity of ZAK-I-57.
In general terms: Tetrazolium assays rely on reduction of a dye to a coloured formazan, in cell work by metabolically active cells.

The next series concerns EGFR. In words: Western blot of EGFR expression in Huh7 cells. Conditions: Huh7, 48 h treatment. As to the method: The Huh7 cells and tumor tissues were lysed on ice using the lysis buffer. Protein concentration was quantified using Bradford assay (Bio-Rad, Hercules, CA, USA). Equivalent amounts of protein (25-50 μg) were loaded onto 10% sodium dodecyl sulfate-polyacrylamide gel electrophoresis (SDS-PAGE) and transferred to polyvinylidene fluoride (PVDF) membranes. Membranes were blocked with 5% non-fat milk in Tris-buffered saline Tween 20 (TBST) for an hour. The blots were incubated with primary antibodies (EGFR (4267S, Cell signaling technology, MA, USA), c-Myc (5605S, Cell signaling technology, MA, USA), Bax (2772S, Cell signaling technology, MA, USA), Bcl-2 (sc-7382, Santa Cruze, TX, USA), ERBB2 (2165S, Cell signaling technology, MA, USA), and α-tubulin (62204, Invitrogen, MA, USA), 1:1000) at 4° C. overnight. Subsequently, the membranes were washed thrice (15 min each) with TBST solution and incubated for 1 h with secondary horseradish peroxidase-conjugated antibodies (NA934 and NA931, Cytiva, MA, USA, 1:5000). Blots were then detected using an ECL kit and photographed using a ChemiDoc Imaging System (Bio-Rad, MA, USA). The bands were quantified using the ImageJ software (NIH, USA). The intensities of the bands for each protein sample were normalized to those of α-tubulin (internal standard protein). Quantitative data are presented as a fold change of untreated control.
On the technique in general: Immunoblotting shows a protein as a band on a membrane.

Series [1] in a line: MTT cytotoxicity assay, MIHA normal hepatocytes. Particulars: human, MIHA normal hepatocyte cells, all concentrations, read-out: cell viability. As to the method: as §1, §2
A further series has as its system MIHA cells. In words: MTT cytotoxicity assay, MIHA normal hepatocytes. Particulars: Hepatocyte. As to the method: as §1, §2
For another series, the system named is Huh7 cells. In words: MTT cytotoxicity assay, Huh7. As to the method: as §1, §2

SMILES strings stand for the structures. Where only a bound is given, the exact number is not on record here.

One may read the viability as a read-out of living cells in per cent, often relative to untreated cells. The IC50 is the point on the concentration scale where inhibition reaches its midpoint. Read a high IC50 as weaker potency. Take `O=c1oc(-c2ccc3ccccc3c2)nc2cc([N+](=O)[O-])ccc12` [ZAK-I-57, 2-(naphthalen-2-yl)-7-nitro-4H-3,1-benzoxazin-4-one]: the “IC50 against HCC cells, compared with sorafenib and artesunate” value is “lower than sorafenib and artesunate” in the series on PLC/PRF/5 cells (HCC cells (PLC/PRF/5)); “lower than sorafenib and artesunate” in the series with Huh7 cells (HCC cells (Huh7)). The “cytotoxicity (cell viability)” value in the series with PLC/PRF/5 cells (PLC/PRF/5, ZAK-I-57 24 h, ZAK-I-64 and ZAK-I-68 48 h) is listed as “concentration-dependent increase in cytotoxicity”; in the series with Huh7 cells (Huh7, ZAK-I-57 24 h, ZAK-I-64 and ZAK-I-68 48 h) it was “concentration-dependent increase in cytotoxicity”. Further, the EGFR expression entry with EGFR is listed as “significant downregulation”. Further, in series [1] (24 h), the viability at 24 h was greater than 90%. In series [1] (48 h), the viability at 48 h is greater than 90%. The IC50 with MIHA cells (24 h), in the series with MIHA cells (48 h) and with MIHA cells (time not stated) was greater than 100 µM each time.
